For assay [1], the system named is miRNA expression in A549 and NCI-H157 lung cancer cells. Briefly: miRNA microarray after treatment with 5-aza-dC and/or TSA. In kind it is cell-based, human. To be noted: 1.0 μM, triplicate. The method, then:
Microarray analysis was performed as previously described (Liu, C. G., et al., Proc. Natl. Acad. Sci. U.S.A. 101:9740-9744 (2004)). Briefly, 5 μg of total RNA was hybridized with miRNA microarray chips containing 352 probes in triplicate. Specifically, these chips contain gene-specific 40-mer oligonucleotide probes, spotted by contacting technologies and covalently attached to a polymeric matrix, which were generated from 161 human miRNAs, 84 mouse miRNAs, miRNAs from three other species and tRNA. The microarrays were hybridized in 6×SSPE (0.9 M NaCl/60 mM NaH2PO4.H2O/8 mM EDTA, pH 7.4)/30% formamide at 25° C. for 18 hr, washed in 0.75×TNT (Tris.HCl/NaCl/Tween 20) at 37° C. for 40 min, and processed using a method of direct detection of biotin-containing transcripts by streptavidin-Alexa647 conjugate (Molecular Probes, Carlsbad, Calif.). Processed slides were scanned using a PerkinElmer ScanArray XL5K Scanner, with the laser set to 635 nm, at Power 80 and PMT 70 setting, and a scan resolution of 10 μm. An average value of the three spot replicates for each miRNA was normalized and analyzed in BRB-ArrayTools version 3.2.3. After excluding negative values with hybridization intensity below background, normalization was performed by using a per chip on median normalization method and normalization to median array as reference. […]

The test system of assay [2] is MYO18B mRNA in lung cancer cell lines (H157, A549). Briefly: MYO18B mRNA expression after treatment with 5-aza-dC and/or TSA, RT-PCR analysis. It counts as cell-based, human. To be noted: 1.0 μM, FIG. 12. The method, then:
FIG. 12 depicts the expression of MYO18B mRNA after treatment with 5-aza-dC and/or TSA in two lung cancer cell lines (H157, A549), as determined by RT-PCR analysis. Lane 1, no treatment; lane 2, treatment with 1.0 μM 5-aza-dC for 72 hr; lane 3, treatment with 1.0 μM TSA for 24 hr; lane 4, treatment with 1.0 μM 5-aza-dC for 72 hours, followed by treatment with 1.0 μM TSA for 24 hr. GAPDH expression served as a loading control.
A549 and NCI-H157 lung cancer cells (available from the American Tissue Culture Collection) were incubated with medium containing 1.0 μM 5-aza-dC (Sigma, St. Louis, Mo.) for 48 hr, then were incubated for an additional 24 hr in the presence of 1.0 μM TSA (Sigma, St. Louis, Mo.). Total RNA was isolated with TRIzol® Reagent (Invitrogen), and microarray analysis was performed as described above. Each treatment was performed in triplicate.
miRNA microarrays were used to analyze the expression of various miRNAs upon treatment with 5-aza-2′-deoxycytidine (5-aza-dC), a DNA methylation inhibitor, and/or Trichostatin A (TSA), a potent histone deacteylase inhibitor, in two lung cancer cell lines (A549 and NCI-H157).

`Nc1ncn([C@H]2C[C@H](O)[C@@H](CO)O2)c(=O)n1` [5-aza-dC, 5-aza-2′-deoxycytidine]: in assay [1], the “changes in miRNA expression on microarray after treatment” value was “no miRNAs from the microarray displayed statistically-significant changes in expression”. The “expression of MYO18B (transcriptionally-silenced gene) following treatment” value in assay [2] is “increased expression”.

On to `CC(/C=C/C(=O)NO)=C\[C@@H](C)C(=O)c1ccc(N(C)C)cc1` [TSA, Trichostatin A], for which the “changes in miRNA expression on microarray after treatment” value in assay [1] is reported as “no miRNAs from the microarray displayed statistically-significant changes in expression”. For the same molecule, the “expression of MYO18B (transcriptionally-silenced gene) following treatment” value in assay [2] is reported as “increased expression”.

For the origin of these results see US7943318B2, “Microrna-based methods and compositions for the diagnosis, prognosis and treatment of lung cancer” (The Ohio State University Research Foundation, priority 2006, dated 2011).
